Results: patent US20080227863A1, “Organic Compounds” (Novartis AG, priority 2005, published 2008)

N#CC(C#N)(COc1ccccc1Cl)NC(=O)c1ccc(OC(F)(F)F)cc1 [Compound 1.3, N-[2-(2-Chloro-phenoxy)-1,1-dicyano-ethyl]-4-trifluoromethoxy-benzamide]
melting point: 154 to 155 °C
